Measurements as given in a melting point compilation (Tetko et al.; mined from patent text by program, amines drawn as free bases though some values may be those of a salt).

| SMILES | melting point |
| --- | --- |
| O=[N+]([O-])c1ccc(C(O)c2ccccn2)c(Cl)c1 (centres undefined) | 124 to 127 °C |
| CC(C)CC(=O)Nc1ccc2oc3c(c2c1)CCC3 | 162 to 163 °C |
| CC(C(N)=O)c1ccc2c(c1)Oc1ccccc1CC2=O (centres undefined) | 159 to 160 °C |
| N#CC(C#N)=C1N(CCN2CCCCC2)CCN1CCN1CCCCC1 | 104 to 106 °C |
| COC[C@H]1CN(c2ccc3oc(-c4ccccc4)cc3c2)C(=O)O1 | 178 to 179 °C |
| Cc1cn(C2OC(CO)C(O)C2O)c(=S)[nH]c1=O (centres undefined) | 206 to 208 °C |
| Cc1cccc(NCC(C)Br)c1C (centres undefined) | 55 to 58 °C |
| CCOC(=O)c1nc2c(=O)[nH]c3cc(C(F)(F)F)ccc3n2c1CBr | 247 to 248 °C |
| N#CCc1cccc(C(=O)c2ccccc2)c1N | 138 to 139 °C |
| CNC1(C)CN(c2c(F)cc3c(=O)c(C(=O)O)cn(C4CC4)c3c2F)C1 | > 300 °C |
| CC(C)(CO)CCCCC(CCCCC(C)(C)CO)C(C)(C)O | 72 to 74 °C |
| O=C1CSc2cccc(F)c2N1 | 190 to 191 °C |
| CCS(=O)(=O)Nc1cc(N=c2sc(=S)n3n2CCCC3)c(F)cc1Cl | 146 to 148 °C |
| CN(C)/C=C/C(=O)c1ccc2n1Cc1ccccc1N(C(=O)c1ccc(C3CCCCC3)cc1)C2 | 237 to 240 °C |
| O=Cc1cc(O)cc2cc(-c3ccc(O)cc3)oc12 | 261 to 263 °C |
| O=C(Nc1cccc(-c2ccnc3c(C(=O)c4cccs4)cnn23)c1)c1c(Cl)cccc1Cl | 245 to 246 °C |
| COc1cc(Nc2nccc(N3CCC(O)CC3)n2)ccc1-n1cnc(C)c1 | 197 to 200 °C |
| O=C1NCN(c2ccc(F)cc2)C12CCN(CCCn1c(=O)[nH]c3ccccc31)CC2 | 215 °C |
| COC1=C(OC)C(=O)C2=C(CC(CCCCCCCC(N)=O)(C(N)=O)C2)C1=O | 140 to 143 °C |
| COC1(c2ccc(Sc3ccc4c(c3)CCC(=O)N4C)s2)CCOCC1 | 84 to 86 °C |
| CC(C)=CCc1cc(C2CC(=O)c3ccc(O)cc3O2)ccc1O (centres undefined) | 76 to 78 °C |
| COc1cc2nc(N3CCN(C(=O)CCCO)CC3)nc(N)c2cc1OC | 241 to 243 °C |
| CC(C)C1(C)C(=O)N=C2c3ncc(C4OCCO4)cc3C(=O)N21 (centres undefined) | 146 to 148 °C |

| SMILES | melting point |
| --- | --- |
| CC(=O)c1ccc(F)c(COc2ccc(S(=O)(=O)c3ccc(C)nc3Nc3c(C)cc(C)cc3C)cc2)c1 | 141 to 143 °C |
| COCC(COC)(CN(C)CCP(C)(C)=S)SCc1ccccc1 | 74 °C |
| CC(=O)Nc1nc2c(Oc3cc(-c4ccc(C(F)(F)F)cc4NC(=O)C4CCCCN4C(C)C)ncn3)cccc2s1 (centres undefined) | 260 °C |
| O=C(CCC1CCN(Cc2cccc(F)c2)CC1)c1cc2c3c(c1)CCN3C(=O)CC2 | 111 to 112 °C |
| CCC1(C)COP(=O)(Cc2ccc([N+](=O)[O-])cc2)OC1 (centres undefined) | 184 to 185 °C |
| CC(C)(C)OC(=O)N(O)C(=O)CN | 115 to 117 °C |
| CC(C)CC(=O)c1cc2ccncc2[nH]1 | 215 to 218 °C |
| CN1CCN(C(=O)Cc2c(-c3ccc(Cl)cc3)nc3ccccn23)CC1 | 175 °C |
| CCN(CC)c1ccc2c(c1)C[C@@H]1c3ccccc3N[C@H]21 (relative stereo) | 116 to 118 °C |
| COc1nc(Cc2nn(C)c(C)c2NS(=O)(=O)C(F)(F)F)nc(OC)n1 | 145 °C |
| CN1CCC(=C2c3ccccc3CCc3ccc(CO)cc32)CC1 | 178 to 181 °C |
| CCOCc1nc2c(N)nc3cc(-c4cccc(C(=O)O)c4)ccc3c2n1CC(C)(C)O | > 250 °C |
| CC(C)(C)c1cc(Cn2cncn2)cc(C(C)(C)C)c1O | < 30 °C |
| CCCNCC(O)c1ccc(Br)cc1 (centres undefined) | 72.5 to 74.5 °C |
| Oc1cccc(COC=C2C3CC4CC(C3)CC2C4)c1 | 133 to 134 °C |
| O=CNC(Cl)C(Cl)(Cl)CCl (centres undefined) | 55 to 57 °C |
| Cc1cccc2c1C(=O)N1CCC[C@H]1c1c(C(=O)OC(C)(C)C)ncn1-2 | 192 to 194 °C |
| COC(=O)C(C)c1cc(=O)n(Cc2ccccc2)c2ccccc12 (centres undefined) | 90 to 92.5 °C |
| CN1C(=O)CC[C@]2(C)c3ccc(NC(=O)c4cccc([N+](=O)[O-])c4)cc3CC[C@@H]12 | 240 to 242 °C |
| CC(=S)NCC1CN(c2ccc(-c3csc(Cn4cncn4)n3)c(F)c2)C(=O)O1 (centres undefined) | 82 to 84 °C |
| CCOC(=O)C(C)(C)Oc1ccc(CCCC(=O)NN(Cc2cccc(OC)c2)C(N)=O)cc1 | 91.9 to 93.4 °C |
| CC(=O)Oc1c(C)c(C)c2c(c1C)C(=O)CC(C)(COc1ccc(N)cc1)O2 (centres undefined) | 177 to 178 °C |
| Cc1nn(-c2cc(Oc3ccc([N+](=O)[O-])cc3)c(Cl)cc2F)c(=O)n1C(F)F | 115 to 117 °C |

| SMILES | melting point |
| --- | --- |
| CCCCCCCCCCCCCCCCSCC(CNS(=O)(=O)CCCI)NC(C)=O (centres undefined) | 75 to 76 °C |
| COc1ccc(-c2nc3cc(F)ccc3s2)cc1OC(=O)c1ccc([N+](=O)[O-])cc1 | 198 °C |
| COc1ccc(N(C(=O)CN2C(=O)C(COCc3ccccc3)C(=O)N(c3ccccc3)c3ccccc32)C(C)C)cc1 (centres undefined) | 203 to 204 °C |
| O=[N+]([O-])c1ccc(C2Nc3ccccc3-c3c([N+](=O)[O-])cnn32)cc1 (centres undefined) | 190 to 191 °C |
| CC1(COCc2ccccc2)COC(C)(C(=O)N(C(N)=O)c2ccccc2)O1 (centres undefined) | 91 to 94 °C |
| CNc1nc(C)c(-c2nc3ccccc3c(=O)n2-c2ccc(C(C)=O)cc2)s1 | 245 to 246 °C |
| Cc1noc(-c2ncn3c2[C@@H]2CCCN2C(=O)c2cc(F)ccc2-3)n1 | 248 to 249 °C |
| CC12CCC3C(CCC4CC(I)CCC43C)C1CCC2=O (centres undefined) | 123 to 125 °C |
| c1cn(CCc2ccc3c(c2)-c2[nH]nc(-c4ccsc4)c2C3)cn1 | 212 to 216 °C |
| CC(=O)c1cccn1[C@@H](Cc1ccc(OCCc2nc(-c3ccccc3)oc2C)cc1)C(=O)O | 110 to 112 °C |
| CC(C)(C(N)=O)c1ccc(OCc2ccccc2)cc1 | 150 to 151 °C |
| CCOC(=O)C1(C(=O)OCC)CCC2(CC1)c1cc(OCC)c(OCC)cc1CCN2C(=O)OCc1ccccc1 | 88.4 to 89.1 °C |
| COC(CCC(N)=C(SC)S(C)=O)OC (centres undefined) | 86 to 87 °C |
| CC(=O)c1c(C)[nH]c(-c2ccccc2C)c1NCc1ccc(Cl)cc1 | 167 to 170 °C |
| CC(C)P1(=O)c2ccccc2CN1c1ccccc1 (centres undefined) | 145 to 147 °C |
| CCC(Oc1ccc(Cl)c(C)c1)C(=O)NCc1ccccc1Cl (centres undefined) | 107 to 109 °C |
| CN1CC=C(c2c[nH]c3ccc(NC(=S)NC(=O)c4ccccc4)cc23)CC1 | 182 to 184 °C |
| Cc1cc(-c2ccc(C#N)cc2)nc(-c2cccc(-c3cccc(S(N)(=O)=O)c3)n2)n1 | 255 °C |
| C#CCOc1noc2c1CN(C(=O)OC(C)(C)C)CC2 | 107 to 108 °C |
| Clc1ccc2sc(Cl)nc2c1 | 70 °C |
| CCC(=O)Nc1ccc(C=CC(=O)O)cc1 | 243 °C |
| CC(C)(C)OC(=O)N[C@H](Cc1cn(Cc2ccccc2)c2ccccc12)C(=O)O | 164 to 165 °C |

More lines, now with the values ahead:

| melting point | SMILES |
| --- | --- |
| 248 to 249 °C | Cc1ccc(Oc2ccc(C3=CC=CN4CCS(=O)(=O)N=C34)cc2)cc1 |
| 134 to 135 °C | CN(C)C(=O)CCN1CCC(C(O)(c2ccc(F)cc2)c2ccc(F)cc2)CC1 |
| 216 to 217 °C | O=C(NCc1c[nH]c(=S)n1[C@H]1CCc2c(F)cc(F)cc2C1)c1ccccn1 |
| 241 to 243 °C | COc1ccc2[nH]c3c(C)nc4c(c3c2c1)C(=O)CC(C)(C)C4 |
| 135 °C | CC(=O)OCC1=C(C(=O)OCOC(=O)C(C)(C)C)N2C(=O)C(NC(=O)Cc3csc(=O)s3)C2SC1 (centres undefined) |
| 115 to 118 °C | CC(C)c1ccccc1N1/C(=N\N=C/c2ccc(-c3ncn(-c4ccc(OC(F)(F)F)cc4)n3)cc2)SCC1(O)c1ccccc1C(F)(F)F (centres undefined) |
| 225 to 227 °C | Cc1ccc(S(=O)(=O)NCC(CC(=O)Nc2ccc(C(=O)O)cc2)c2ccccc2)cc1 (centres undefined) |
| 270 °C | O=C(NCc1ccc2c(c1)OCO2)c1ccc2[nH]c(=O)n(Cc3cccs3)c(=O)c2c1 |
| 121 to 124 °C | OCC1C=CC(n2cnc3c(Cl)ncnc32)C1 (centres undefined) |
| 125 to 126 °C | OC1CCn2c(CCc3ccccc3)nc3cccc1c32 (centres undefined) |
| 198 to 200 °C | CCOC(=O)NN=C(c1ccc(Cl)cc1)c1ccc(NS(C)(=O)=O)cc1 |
| 128 to 130 °C | Cc1ccc2c3c(ccc2n1)OCC(CN1CCC(c2nc4ccccc4o2)CC1)O3 (centres undefined) |
| 169 to 170 °C | Cc1cccc(CC(NC(=O)C(c2ccccc2)c2ccccc2)C(=O)NC(C#N)CCOc2cccc(C(=O)O)c2)c1 (centres undefined) |
| 41 to 42.5 °C | CCCCCCCCCCOc1ccc(CO)cc1OCCCCCCCCCC |
| 232 to 234 °C | CC(=O)N1C(C)(C)CC(NC(=O)c2ccc(Cl)c(N)c2)CC1(C)C |
| 62 to 64 °C | COc1ccc(CCCOc2c(C)cc(-c3noc(C(F)(F)F)n3)cc2C)cn1 |

| melting point | SMILES |
| --- | --- |
| 148 to 150 °C | O=Cc1c2ccccc2cc2ccc(Cl)cc12 |
| 113 °C | Cc1ccc([N+](=O)[O-])cc1C=CC#N |
| 180 to 182 °C | Cc1cc(C(O)(C(F)(F)F)C(F)(F)F)cc(C)c1OCC(N)=O |
| 214 °C | Cc1cccc(NC(=O)NCC(=O)N(CC(=O)NC(C)(C)C)c2ccccc2)c1 |
| 68 to 70 °C | COC(=O)CCCOc1cc([N+](=O)[O-])c(CBr)cc1OC |
| 112 to 115 °C | O=Cc1ccc2nccc(Oc3ccccc3)c2c1 |
| 158 to 160 °C | NNc1nc(-c2ccccc2)co1 |
| 192 °C | COc1ccc(-c2cc(C(F)(F)F)n3cnc(C#N)c3n2)cc1 |
| 310 to 313 °C | O=C(NCc1ccc(Cl)cc1)c1cnc2c(F)cc(O)cc2c1O |
| 114 °C | COc1ccc(CCN(C)CCCc2ccc(NC(=O)c3cccc4c(=O)c5ccccc5[nH]c34)cc2)cc1OC |
| 162 to 165 °C | CC(C)NC(=O)Nc1ccc(-c2ccnc3c(C(=O)c4cccs4)cnn23)s1 |
| 123 to 125 °C | COc1cc(Oc2cccc(C(F)(F)F)c2)nc(C(=O)NC=C(Cl)Cl)c1 |
| 203 to 204 °C | CCOc1cc2cc(C(=O)OC)c(C(=O)OC)c(-c3ccnc(Br)c3)c2cc1OC |
| 263 to 264 °C | CCOC(=O)Cc1ccc(NC(=O)N2CCn3c(c(C(N)=O)c(C#N)c3C3CC3)C2)cc1 |
| 110 to 111 °C | COc1ccc(CN2C(=O)[C@@H](NC(=O)Cc3ccccc3)[C@H]2CN=[N+]=[N-])c(OC)c1 (relative stereo) |
